The values that follow come from patent US20120156670A1, “IN VITRO […]-CULTURE MODELS” (ARIZONA STATE UNIVERSITY, priority 2010, published 2012).

The subject of data set [1] is endocervical model co-culture. The data set can be described thus: Bioplex cytokine production in co-culture supernatants, endocervical model. It counts as cell-based, human. To be noted: FIG. 4. As to the method:
Vaginal- and endocervix-cell bearing microcarriers were collected, washed, and re-suspended in 30 mL of KSFM complete medium (Invitrogen, with EGF and BPE), CaCl, and Primocin (InvivoGen). They were then placed on a shaker in polystyrene bottles with vented caps in an incubator (5% CO2, 37° C.) to mimic the circular agitation of the RWV bioreactor. The two types of cell-bearing microcarriers were primed using E. coli as the antigen to mimic an in vivo infection of the female reproductive mucosa through the following steps after a day of culture in the incubator. The E. coli was heat-inactivated and the resulting bioparticles were added at a concentration of 1×10^6/mL to the shaker bottles. E. coli bioparticles alone and no-treatment conditions served as positive and baseline controls, respectively.
The effect of the microbicide nonoxynol-9 (N-9) on antigen priming was studied in experiments by mimicking in vivo microbicidal exposure through the use of Conceptrol®, leading to tissue damage, followed by bacterial infection. Over-the-counter, N-9-containing Conceptrol® was diluted to 20 μg/mL. The concentration of Conceptrol® was chosen to limit massive cell death due to presence of N-9 and reported findings of weakened membrane integrity in the presence of this surfactant microbicide (Dayal, 2003). […]

Data set [2] relates to dendritic cells in endocervical model co-culture. In words: MIMIC co-culture of primed endocervical epithelial microcarriers with PTE module: dendritic cell recovery. It counts as cell-based, human. To be noted: FIG. 2. The text has this:
(§1) Our experimental design of the MIMIC® co-culture of RWV bioreactor-grown epithelial tissue from selected female reproductive tract tested the efficacy of the differentiated epithelia to pick up and present antigen (FIG. 1). RWV-cultured female reproductive microcarriers of differentiated vaginal and endocervical mucosa were exposed to microbicide/spermicide and bacterial antigen and then introduced to the APC-containing PTE module to study the innate immune responses to Nonoxynol-9 and E. coli bioparticulate treatments.
(§2) Approximately 3.5-week cultured vaginal tissue aggregates and endocervical tissue aggregates were used to mimic the local mucosal tissue of the female reproductive vaginal and endocervical regions. Cell-bearing microcarrier beads were prepared as follows. Collagen-coated Cytodex beads (Sigma) composed of dextran and having an average size of ˜60-87 microns were prepared for cell attachment by soaking in sterile PBS overnight and autoclaved. […]
(§3) Specifically, for the differentiated reproductive epithelial microcarrier co-cultures used here, we generated PTE modules over a period of 2 weeks as follows (see FIG. 1). […] Cell layer integrity and viability were assessed by phase contrast microscopy and/or trypan blue exclusion staining. […]

The subject of data set [3] is dendritic cells in vaginal model co-culture. In words: MIMIC co-culture of primed vaginal epithelial microcarriers with PTE module: dendritic cell recovery. It counts as cell-based, human. To be noted: FIG. 2.
Description: as §1, §2, §3

Data set [4] relates to PTE antigen-presenting cells. In words: Total immune cell recovery by trypan blue exclusion and flow cytometry (FIG. 2). It counts as cell-based, human. To be noted: FIG. 2 legend; model not specified. The method, then: FIG. 2. Total immune cell recovery calculated by trypan blue exclusion and total DCs per treatment were calculated by applying the percentage marker expression from flow cytometry data. […] CD86 and CCR7 expression in the vaginal model also confirm the antigen uptake/presentation responsiveness of the vaginal model.
The quality of immune APCs was determined by quantifying dendritic cell marker expression (HLA-DR, CD14, CD86, CCR7) from the reverse-transmigrated cell fraction of the MIMIC® co-cultures.

Data set [5] relates to vaginal epithelial cells. To be noted: background statement; cited from earlier work.
[6] abbreviates: N-9 and E. coli bioparticles delivered together.
[7] abbreviates: single treatment, N-9 20 μg/mL, E. coli bioparticles 1×10^6/mL, overnight co-culture.

Regarding nonoxynol-9 [N-9], the “cytokine levels versus no treatment microcarrier plus PTE control” value in data set [1] is listed as “above the no treatment microcarrier plus PTE control”. The “live dendritic cell recovery” value in data set [2] (setting [6]), in data set [2] (setting [7]), in data set [3] (setting [6]) and in data set [3] (setting [7]) was “overall reduction in live dendritic cell recovery” each time. In addition, in data set [4], the “total DC viability” value is recorded as “reduced”. For the same substance, the “effect on vaginal epithelial cells in vitro” value in data set [5] was “increased inflammation, cell death, and damaged tissue mucosa”.
